According to PMC9460261, “Need for a Standardized Translational Drug Development Platform: Lessons Learned from the Repurposing of Drugs for COVID-19” (Microorganisms, 2022):
Read-outs that look alike come from different tables or passages of the source.

Legend:
[1] = Plasma protein binding, hamster; conditions: for fraction unbound: hamster, plasma
[2] = Population PK model from satellite PK studies in hamster; conditions: for CL/F, elimination clearance, population estimate (%RSE) / Q/F (Q1/F), inter-compartment clearance, population estimate (%RSE) / VC/F, central volume of distribution, population estimate (%RSE) / VP/F, peripheral volume of distribution, population estimate (%RSE) / KA, absorption rate constant, population estimate (%RSE): hamster of the study's median weight (80-131 g)
[3] = Binding to antiviral assay medium by Rapid Equilibrium Dialysis; conditions: for Fraction unbound in assay medium: 2% serum DMEM media, DNDi in-house data; for fraction unbound: bovine
[4] = Plasma protein binding, human; conditions: for fraction unbound: human, plasma
SARS-CoV-2 in Vero cells [5] = assay: microbe, parasite or virus in culture; conditions: Severe acute respiratory syndrome coronavirus 2, Vero
[6] = test system: SARS-CoV-2 in Calu-3 cells
SARS-CoV-2 [7] = format: in vivo, Syrian hamster
in vitro = conditions: African green monkey, Selectivity Index (Vero cells)
[8] = test system: SARS-CoV-2 in Calu-3 cells; assay: microbe, parasite or virus in culture; conditions: Severe acute respiratory syndrome coronavirus 2, Calu-3, read-out: Calu-3 cells Average IC50
SARS-CoV-2 in Vero cells [9] = conditions: for IC50: * one replicate only
SARS-CoV-2 [10] = conditions: cited from earlier work
[11] = Population PK model in human (digitized literature data)
[12] = female, LGV Golden Syrian, hamster, in vivo
[13] = equilibrium dialysis, DNDi in-house
[14] = read-out: VERO cells Average IC50, With Pgp pump inhibitor, 2 μM CP-100356, * one replicate only
[15] = read-out: VERO cells Average IC50, Without Pgp pump inhibitor, * one replicate only
[16] = doses, frequency, duration as in Table 1
[17] = antiviral assay medium (DMEM with 2% v/v FCS)
[18] = host cell Calu-3, read-out: SARS-CoV-2 EC50
[19] = host cell Vero, ref 25, read-out: SARS-CoV-2 EC50
[20] = read-out: VERO cells Average IC50, With Pgp pump inhibitor, 2 μM CP-100356
[21] = read-out: VERO cells Average IC50, Without Pgp pump inhibitor
[22] = human, modelled from digitized data, ref 68 (ambroxol), 71-73 (cepharanthine), 78 (fluvoxamine), 80 (molnupiravir)

C[C@@]1(F)[C@H](O)[C@@H](CO)O[C@H]1n1cnc2c(=O)[nH]c(N)nc21 [AT-273]
Fraction unbound in plasma, hamster [1, 13]: 95.5%
KTR, population estimate (%RSE) ([2]; hamster 119 g): 12.3 (50.5) h-1
CL/F, elimination clearance, population estimate (%RSE) [2]: 5.77 (33.1) mL/h
Q/F (Q1/F), inter-compartment clearance, population estimate (%RSE) [2]: 6730 (12.2) mL/h
VC/F, central volume of distribution, population estimate (%RSE) [2]: 49200 (13.2) mL
VP/F, peripheral volume of distribution, population estimate (%RSE) [2]: 84800 (27.3) mL
Fraction unbound in assay medium [3]: 99.1%
Fraction unbound in plasma, human [4, 13]: 57.8%

CCN(CC)Cc1cc(Nc2ccnc3cc(Cl)ccc23)ccc1O [Amodiaquine, amodiaquine]
IC50 (SARS-CoV-2 in Vero cells [5]; read-out: EC50 or IC50, Vero Cells): ~10 µM
IC50 (SARS-CoV-2 in Vero cells [5]; [14]): 2.6 µM
IC50 (SARS-CoV-2 in Vero cells [5]; [15]): 8.8 µM
Activity In Vitro; Potency EC50 or IC50 < 10 µM; Calu-3 Cells [6]: No (Potency EC50 or IC50 < 10 µM)
Activity in SARS-CoV-2 Hamster Model (SARS-CoV-2 [7]; [16]): No (parent)
selectivity ratio (in vitro; With Pgp pump inhibitor): > 19
selectivity ratio (in vitro; Without Pgp pump inhibitor): > 5.7
fraction unbound [1]: 0.096
IC50 [8]: > 50 µM
Route effect (SC) on CL/F ([2]; covariate, hamster model): -85.3 (1.81%)
Route effect (SC) on KA ([2]; covariate, hamster model): -20.4 (19.8%)
CL/F, elimination clearance, population estimate (%RSE) [2]: 4390 (7.44%) mL/h
KA, absorption rate constant, population estimate (%RSE) [2]: 0.0784 (6.52%) h-1
VC/F, central volume of distribution, population estimate (%RSE) [2]: 158 (15.3%) mL
fraction unbound [3, 17]: 0.878
fraction unbound [4]: 0.067
Activity In Vitro; Potency EC50 or IC50 < 10 µM; Vero Cells (SARS-CoV-2 in Vero cells [9]): Yes (Potency EC50 or IC50 < 10 µM)
EC50 (SARS-CoV-2 [10]; [18]): > 50 µM
EC50 (SARS-CoV-2 [10]; host cell Huh7.5, read-out: SARS-CoV-2 EC50): 0.6 µM
EC50 (SARS-CoV-2 [10]; host cell Vero CCL81, read-out: SARS-CoV-2 EC50): 1.6 µM
EC50 (SARS-CoV-2 [10]; host cell Vero E6, ref 29, read-out: SARS-CoV-2 EC50): 10 µM
EC50 (SARS-CoV-2 [10]; host cell Vero E6, ref 30, read-out: SARS-CoV-2 EC50): 4.9 µM
EC50 (SARS-CoV-2 [10]; [19]): 5.2 µM

COC(=O)N[C@H](C(=O)N[C@@H](Cc1ccccc1)[C@@H](O)CN(Cc1ccc(-c2ccccn2)cc1)NC(=O)[C@@H](NC(=O)OC)C(C)(C)C)C(C)(C)C [Atazanavir, atazanavir]
IC50 (SARS-CoV-2 in Vero cells [5]; [14]): > 50 µM
IC50 (SARS-CoV-2 in Vero cells [5]; [15]): 45.5 µM
Activity in SARS-CoV-2 Hamster Model (SARS-CoV-2 [7]; [16]): no activity
selectivity ratio (in vitro; Without Pgp pump inhibitor): > 2.2
fraction unbound [1]: 0.2
IC50 [8]: 21 µM
fraction unbound [3, 17]: 0.348
EC50 (SARS-CoV-2 [10]; atazanavir and ATZ/ritonavir combination, read-out: EC50 in infected A549 lung epithelia cells): 0.6 µM
EC50 (SARS-CoV-2 [10]; host cell A549, read-out: SARS-CoV-2 EC50): 0.2 µM
EC50 (SARS-CoV-2 [10]; host cell Vero E6, ref 23, read-out: SARS-CoV-2 EC50): 2 µM
EC50 (SARS-CoV-2 [10]; host cell Vero E6, ref 24, read-out: SARS-CoV-2 EC50): 9.36 µM
EC50 (SARS-CoV-2 [10]; [19]): > 50 µM

O=c1nc(NO)ccn1[C@@H]1O[C@H](CO)[C@@H](O)[C@H]1O [EIDD-1931]
IC50 ([6]; read-out: Calu-3 cells Average IC50, * one replicate only): 3.6 µM
Fraction unbound in assay medium [3]: 99.7%
Selectivity Index (Vero cells), With Pgp pump inhibitor (SARS-CoV-2 in Vero cells [9]; T: toxicity observed): > 37
Selectivity Index (Vero cells), Without Pgp pump inhibitor (SARS-CoV-2 in Vero cells [9]; T: toxicity observed): > 32
IC50 (SARS-CoV-2 in Vero cells [9]; [20]): 1.3 µM
IC50 (SARS-CoV-2 in Vero cells [9]; [21]): 1.5 µM

CNCCC(Oc1ccc(C(F)(F)F)cc1)c1ccccc1 (stereo not drawn) [Fluoxetine, fluoxetine]
IC50 (SARS-CoV-2 in Vero cells [5]; read-out: VERO cells Average IC50, With Pgp pump inhibitor): 5.6 µM
IC50 (SARS-CoV-2 in Vero cells [5]; [21]): 7.7 µM
Activity In Vitro; Potency EC50 or IC50 < 10 µM; Calu-3 Cells [6]: No (key: Yes: Potency EC50 or IC50 < 10 µM; No: Potency EC50 or IC50 < 10 µM)
Activity in SARS-CoV-2 Hamster Model (SARS-CoV-2 [7]; hamster, in vivo): No
fraction unbound [1]: 0.051
Dose effect on FFP (power) ([2]; covariate, hamster model): -0.0175 (13.7)
CL/F, elimination clearance, population estimate (%RSE) [2]: 447 (7.0) mL/h
KA, absorption rate constant, population estimate (%RSE) [2]: 5.34 (11.7) h-1
VC/F, central volume of distribution, population estimate (%RSE) [2]: 3530 (6.5) mL
fraction unbound [3, 17]: 0.682
fraction unbound [4]: 0.048
Activity In Vitro; Potency EC50 or IC50 < 10 µM; Vero Cells (SARS-CoV-2 in Vero cells [9]): Yes ^T (key: Yes: Potency EC50 or IC50 < 10 µM; No: Potency EC50 or IC50 < 10 µM)
Toxicity observed (^T), Vero Cells (SARS-CoV-2 in Vero cells [9]): Yes ^T

CC(C)C(=O)OC[C@H]1O[C@@H](n2ccc(NO)nc2=O)[C@H](O)[C@@H]1O [Molnupiravir, molnupiravir]
IC50 (SARS-CoV-2 in Vero cells [5]; [15]): 26 µM
Activity In Vitro; Potency EC50 or IC50 < 10 µM; Calu-3 Cells [6]: Yes (Potency EC50 or IC50 < 10 µM)
Activity in SARS-CoV-2 Hamster Model (SARS-CoV-2 [7]; [16]): Yes
Activity in SARS-CoV-2 Hamster Model (SARS-CoV-2 [7]; doses, frequency, duration as in Table 1, listed as molnupiravir): demonstrated in vivo efficacy
selectivity ratio (in vitro; With Pgp pump inhibitor, T: toxicity observed): > 19.4
selectivity ratio (in vitro; Without Pgp pump inhibitor, T: toxicity observed): > 1.9
Dose effect on MTT (power) ([11]; covariate, human model): 0.127 (10.8%)
CL/F, population estimate (%RSE) [11, 22]: 80.9 (3.9%) L/h
VC/F, population estimate (%RSE) [11, 22]: 128 (5.7%) L
MTT, population estimate (%RSE) ([11]; human, modelled from digitized data, ref 68 (ambroxol), 78 (fluvoxamine), 80 (molnupiravir)): 1.0 (3.3%) h
IC50 [8]: 27.8 µM
CL/F, elimination clearance, population estimate (%RSE) [12]: 1340 (7.6) mL/h
Dose effect on KA (exp) [12]: -0.00247 (23.7)
KA, absorption rate constant, population estimate (%RSE) [12]: 1.45 (7.5) h-1
Q/F (Q1/F), inter-compartment clearance, population estimate (%RSE) [12]: 15.8 (23.1) mL/h
VC/F, central volume of distribution, population estimate (%RSE) [12]: 172 (21.6) mL
VP/F, peripheral volume of distribution, population estimate (%RSE) [12]: 75.3 (23.0) mL
Activity In Vitro; Potency EC50 or IC50 < 10 µM; Vero Cells (SARS-CoV-2 in Vero cells [9]; in the presence of a P-glycoprotein inhibitor (^Pgp)): Yes ^Pgp (Potency EC50 or IC50 < 10 µM)
IC50 (SARS-CoV-2 in Vero cells [9]; [20]): 2.6 µM
IC50 (SARS-CoV-2 in Vero cells [9]; read-out: VERO cells Average IC50, With Pgp pump inhibitor, 2 μM CP-100356, listed as molnupiravir): < 10 µM
EC50 (SARS-CoV-2 [10]; [18]): 0.1 µM

CC(C)OC(=O)[C@H](C)N[P@](=O)(OC[C@H]1O[C@@H](n2ccc(=O)[nH]c2=O)[C@](C)(F)[C@@H]1O)Oc1ccccc1 [Sofosbuvir, sofosbuvir]
IC50 (SARS-CoV-2 in Vero cells [5]; [14]): > 50 µM
IC50 (SARS-CoV-2 in Vero cells [5]; [15]): > 50 µM
Activity In Vitro; Potency EC50 or IC50 < 10 µM; Calu-3 Cells [6]: No (Potency EC50 or IC50 < 10 µM)
Activity in SARS-CoV-2 Hamster Model (SARS-CoV-2 [7]; [16]): No
Activity in SARS-CoV-2 Hamster Model (SARS-CoV-2 [7]; doses, frequency, duration as in Table 1, listed as sofosbuvir): no activity
IC50 [8]: > 50 µM
CL/F, elimination clearance, population estimate (%RSE) [2]: 122000 (14.4) mL/h
KA, absorption rate constant, population estimate (%RSE) [2]: 0.622 (15.9) h-1
Q/F (Q1/F), inter-compartment clearance, population estimate (%RSE) [2]: 139000 (17.2) mL/h
VC/F, central volume of distribution, population estimate (%RSE) [2]: 46600 (29.9) mL
VP/F, peripheral volume of distribution, population estimate (%RSE) [2]: 1490000 (27.9) mL
fraction unbound [3]: 0.716
Activity In Vitro; Potency EC50 or IC50 < 10 µM; Vero Cells (SARS-CoV-2 in Vero cells [9]): No (Potency EC50 or IC50 < 10 µM)
EC50 (SARS-CoV-2 [10]; [18]): 7.3 µM
EC50 (SARS-CoV-2 [10]; host cell HuH-7, read-out: SARS-CoV-2 EC50): 5.1 µM
EC50 (SARS-CoV-2 [10]; host cell Vero, ref 26, read-out: SARS-CoV-2 EC50): > 10 µM
